Measured values as given in PubChem BioAssay AID328 (DTP/NCI, 2004).
“And” between values parts separate entries of the source, which are not always exact repeats. Equal entries are not always repeated. Toxic doses and inconclusive results are not listed.

Test system: BDF1 mice, P388 leukemia ip, median survival T/C
Assay: NCI In Vivo Anticancer Drug Screen. Data for tumor model P388 Leukemia (intraperitoneal) in B6D2F1 (BDF1) mice
Conditions: endpoint: median survival time, higher = longer survival
Summary of the method: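 Read-out is survival of treated animals expressed relative to the vehicle group, as a T/C ratio.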

[1] = dose: 100.0 mg/kg/injection, schedule: Q04DX003 (ip), vehicle: Klucel (hydroxypropylcellulose) (HPC)
[2] = dose: 200.0 mg/kg/injection, schedule: Q04DX003 (ip), vehicle: Klucel (hydroxypropylcellulose) (HPC)
[3] = dose: 25.0 mg/kg/injection, schedule: Q01DX009 (ip), vehicle: saline with Tween-80
[4] = dose: 25.0 mg/kg/injection, schedule: Q04DX003 (ip), vehicle: saline with Tween-80
[5] = dose: 50.0 mg/kg/injection, schedule: Q01DX009 (ip), vehicle: saline with Tween-80
[6] = dose: 50.0 mg/kg/injection, schedule: Q04DX003 (ip), vehicle: saline with Tween-80
[7] = dose: 100.0 mg/kg/injection, schedule: Q01DX009 (ip), vehicle: saline with Tween-80
[8] = dose: 100.0 mg/kg/injection, schedule: Q04DX003 (ip), vehicle: saline with Tween-80
[9] = dose: 200.0 mg/kg/injection, schedule: Q01DX009 (ip), vehicle: saline with Tween-80
[10] = dose: 50.0 mg/kg/injection, schedule: Q01DX009 (ip), vehicle: Klucel (hydroxypropylcellulose) (HPC)
[11] = dose: 100.0 mg/kg/injection, schedule: Q01DX009 (ip), vehicle: Klucel (hydroxypropylcellulose) (HPC)
[12] = dose: 200.0 mg/kg/injection, schedule: Q01DX009 (ip), vehicle: Klucel (hydroxypropylcellulose) (HPC)
[13] = dose: 400.0 mg/kg/injection, schedule: Q04DX003 (ip), vehicle: Klucel (hydroxypropylcellulose) (HPC)
[14] = dose: 12.5 mg/kg/injection, schedule: Q04DX003 (ip), vehicle: saline
[15] = dose: 50.0 mg/kg/injection, schedule: Q04DX003 (ip), vehicle: saline
[16] = dose: 12.5 mg/kg/injection, schedule: Q01DX009 (ip), vehicle: saline with Tween-80
[17] = dose: 25.0 mg/kg/injection, schedule: Q04DX003 (ip), vehicle: saline
[18] = dose: 50.0 mg/kg/injection, schedule: Q01DX009 (ip), vehicle: saline

O=C1OCCN1/N=C\c1ccccc1
T/C (dose: 100.0 mg/kg/injection, schedule: Q01DX001 (ip), vehicle: olive oil, sesame oil, peanut oil): 95 % of control
T/C (dose: 200.0 mg/kg/injection, schedule: Q01DX001 (ip), vehicle: olive oil, sesame oil, peanut oil): 104 % of control
T/C (dose: 400.0 mg/kg/injection, schedule: Q01DX001 (ip), vehicle: olive oil, sesame oil, peanut oil): 104 % of control

O=C(O)CCSSCCC(=O)O
T/C [1]: 95 % of control
T/C [2]: 100 % of control

c1ccc(CC2NCCc3ccccc32)cc1 (centres undefined)
T/C [3]: 96 % of control
T/C [4]: 115 % of control
T/C [5]: 111 % of control
T/C [6]: 105 % of control
T/C [7]: 107 % of control
T/C [8]: 105 % of control

CCCCCCCC(O)CCCCCCC
T/C (dose: 100.0 mg/kg/injection, schedule: Q01DX009 (ip), vehicle: other): 115 % of control
T/C (dose: 200.0 mg/kg/injection, schedule: Q01DX009 (ip), vehicle: other): 110 % of control
T/C (dose: 400.0 mg/kg/injection, schedule: Q01DX009 (ip), vehicle: other): 100 % of control

COC(=O)/C(C#N)=C(\C)CCC=C(C)C
T/C [4]: 95 % of control
T/C [6]: 105 % of control
T/C [8]: 87 % of control

OCC(O)C(O)C(O)C(O)CO (centres undefined)
T/C (dose: 100.0 mg/kg/injection, schedule: Q01DX010 (ip), vehicle: carboxymethylcellulose (CMC)): 100 % of control
T/C (dose: 100.0 mg/kg/injection, schedule: Q01DX010 (ip), vehicle: saline): 95 % of control
T/C (dose: 400.0 mg/kg/injection, schedule: Q01DX010 (ip), vehicle: carboxymethylcellulose (CMC)): 100 % of control
T/C (dose: 400.0 mg/kg/injection, schedule: Q01DX010 (ip), vehicle: saline): 105 % of control and 110 % of control

CCCCCCC(NC(C)=O)C(C)=O (centres undefined)
T/C [5]: 104 % of control
T/C [7]: 101 % of control
T/C [9]: 101 % of control

CCCCC(OC(=O)c1ccccc1)c1cc(OC(=O)c2ccccc2)c2c(c1OC(=O)c1ccccc1)CC(C)=C(C)C2 (centres undefined)
T/C (dose: 12.5 mg/kg/injection, schedule: Q04DX003 (ip), vehicle: saline with Tween-80): 111 % of control
T/C [4]: 107 % of control

C(=C\c1nc2ccccc2[nH]1)/c1nc2ccccc2[nH]1
T/C [3]: 100 % of control
T/C [5]: 100 % of control
T/C [7]: 92 % of control
T/C [9]: 98 % of control

COC(=O)/C(C=Nc1ccccc1)=C(/C)O
T/C [10]: 112 % of control
T/C [11]: 103 % of control
T/C [12]: 108 % of control

O=C1CC2c3ccccc3C1C1C(=O)OC(=O)C21 (centres undefined)
T/C [1]: 104 % of control
T/C [2]: 90 % of control

Cc1onc(-c2ccccc2Cl)c1C(=O)Nc1ccccc1CC1c2ccccc2CCN1C (centres undefined)
T/C [10]: 101 % of control
T/C [11]: 104 % of control
T/C [12]: 95 % of control

Cc1ccc(S(=O)(=O)N(C)c2ccc(I)c(Cl)c2Cl)cc1
T/C [1]: 100 % of control
T/C [2]: 90 % of control
T/C [13]: 90 % of control

CC(CN)OCc1ccccc1 (centres undefined)
T/C [14]: 100 % of control
T/C [15]: 100 % of control

C=CCOCC(O)CN(CCCC)CCCC (centres undefined)
T/C [16]: 95 % of control
T/C [3]: 95 % of control
T/C [5]: 105 % of control

CC(=O)N(NC(=O)c1ccccn1)C(C)=O
T/C (dose: 50.0 mg/kg/injection, schedule: Q01DX009 (ip), vehicle: saline sonified): 86 % of control
T/C (dose: 50.0 mg/kg/injection, schedule: Q04DX003 (ip), vehicle: saline sonified): 104 % of control
T/C (dose: 100.0 mg/kg/injection, schedule: Q01DX009 (ip), vehicle: saline sonified): 95 % of control
T/C (dose: 100.0 mg/kg/injection, schedule: Q04DX003 (ip), vehicle: saline sonified): 90 % of control
T/C (dose: 200.0 mg/kg/injection, schedule: Q01DX009 (ip), vehicle: saline sonified): 91 % of control
T/C (dose: 200.0 mg/kg/injection, schedule: Q04DX003 (ip), vehicle: saline sonified): 104 % of control

CC1(C)N=C(N)N=C(N)N1c1ccc(OCCCNC(=O)Nc2cccc(S(=O)(=O)F)c2)c(Cl)c1
T/C [3]: 177 % of control
T/C [4]: 150 % of control
T/C [5]: 200 % of control
T/C [6]: 150 % of control
T/C (dose: 66.0 mg/kg/injection, schedule: Q01DX009 (ip), vehicle: saline with Tween-80): 177 % of control
T/C [7]: 86 % of control and 213 % of control

COc1ccc(-c2csc(=[N+]3CCCCC3)s2)cc1
T/C [14]: 105 % of control
T/C [17]: 122 % of control
T/C [15]: 87 % of control

c1ccc(C(Nc2nccs2)Nc2nccs2)cc1
T/C [16]: 112 % of control
T/C [3]: 108 % of control
T/C [5]: 96 % of control and 108 % of control

CN(C)c1ccc(/C=C/c2ccnc3ccccc23)cc1
T/C (dose: 5.0 mg/kg/injection, schedule: Q01DX010 (ip), vehicle: saline): 95 % of control and 100 % of control
T/C (dose: 9.0 mg/kg/injection, schedule: Q01DX010 (ip), vehicle: saline): 100 % of control
T/C (dose: 10.0 mg/kg/injection, schedule: Q01DX010 (ip), vehicle: saline): 95 % of control and 100 % of control
T/C (dose: 18.0 mg/kg/injection, schedule: Q01DX010 (ip), vehicle: saline): 109 % of control
T/C (dose: 20.0 mg/kg/injection, schedule: Q01DX010 (ip), vehicle: saline): 90 % of control and 100 % of control
T/C (dose: 35.0 mg/kg/injection, schedule: Q01DX010 (ip), vehicle: saline): 109 % of control
T/C (dose: 40.0 mg/kg/injection, schedule: Q01DX010 (ip), vehicle: saline): 100 % of control

CC(=O)C1C(=O)OC2(C)C(=O)C3=COC(/C=C\C(C)=C/C(C)C)=CC3=CC12 (centres undefined)
T/C (dose: 75.0 mg/kg/injection, schedule: Q01DX009 (ip), vehicle: saline with Tween-80): 107 % of control
T/C (dose: 150.0 mg/kg/injection, schedule: Q01DX009 (ip), vehicle: saline with Tween-80): 151 % of control

O=C1CSC(c2ccccc2)N1 (centres undefined)
T/C [11]: 103 % of control
T/C [1]: 100 % of control
T/C [12]: 103 % of control
T/C (dose: 400.0 mg/kg/injection, schedule: Q01DX009 (ip), vehicle: Klucel (hydroxypropylcellulose) (HPC)): 96 % of control
T/C [13]: 96 % of control

CNC(C)Cc1ccccc1OC (centres undefined)
T/C (dose: 12.5 mg/kg/injection, schedule: Q01DX009 (ip), vehicle: saline): 89 % of control
T/C (dose: 25.0 mg/kg/injection, schedule: Q01DX009 (ip), vehicle: saline): 89 % of control
T/C [17]: 88 % of control
T/C [18]: 92 % of control
T/C [15]: 92 % of control

CCOc1cccc2c1C(=O)c1c(O)c3c(c(O)c1C2=O)C[C@@](O)(C(C)=O)C[C@@H]3OC1CC(N)C(O)C(C)O1 (some centres undefined)
T/C (dose: 6.25 mg/kg/injection, schedule: Q04DX003 (ip), vehicle: water): 123 % of control
T/C (dose: 50.0 mg/kg/injection, schedule: Q04DX003 (ip), vehicle: water): 108 % of control

O=C1C(=C2CCCCC2)SC(=S)N1c1ccccc1
T/C [5]: 106 % of control
T/C [7]: 103 % of control
T/C [9]: 103 % of control

CCCCCC[C@H]([C@H](C)O)n1cnc2c(N)ncnc21
T/C (dose: 15.0 mg/kg/injection, schedule: Q01DX009 (ip), vehicle: saline): 105 % of control
T/C (dose: 22.0 mg/kg/injection, schedule: Q01DX009 (ip), vehicle: saline): 105 % of control
T/C (dose: 33.0 mg/kg/injection, schedule: Q01DX009 (ip), vehicle: saline): 104 % of control
T/C [18]: 101 % of control

CC(=O)OC(c1nc2ccccc2c(=O)n1C1CC2(OC1=O)c1ccccc1N1C(=O)C(C)N(O)C12)C(C)C (centres undefined)
T/C (dose: 4.0 mg/kg/injection, schedule: Q01DX009 (ip), vehicle: Klucel (hydroxypropylcellulose) (HPC)): 93 % of control
T/C (dose: 8.0 mg/kg/injection, schedule: Q01DX009 (ip), vehicle: Klucel (hydroxypropylcellulose) (HPC)): 101 % of control
T/C (dose: 16.0 mg/kg/injection, schedule: Q01DX009 (ip), vehicle: Klucel (hydroxypropylcellulose) (HPC)): 110 % of control
T/C (dose: 32.0 mg/kg/injection, schedule: Q01DX009 (ip), vehicle: Klucel (hydroxypropylcellulose) (HPC)): 100 % of control

COc1cc(Nc2nc(N)ncc2N)cc(OC)c1OC
T/C (dose: 100.0 mg/kg/injection, schedule: Q01DX001 (ip), vehicle: saline with Tween-80): 91 % of control
T/C (dose: 200.0 mg/kg/injection, schedule: Q01DX001 (ip), vehicle: saline with Tween-80): 91 % of control
T/C (dose: 400.0 mg/kg/injection, schedule: Q01DX001 (ip), vehicle: saline with Tween-80): 100 % of control
